Results on one molecule are retold here after ChEMBL document CHEMBL5532761, “Rosavin improves insulin resistance and alleviates hepatic and kidney damage via modulating the cGAS-STING pathway and autophagy signaling in HFD/STZ-induced T2DM animals” (2024).

The source made the active and inactive calls. The rule behind the calls is not given here.

Experiment [1] concerns Rattus norvegicus. The experiment in a line: Antidiabetic activity in high fat diet-STZ induced diabetic Wistar rat model assessed as ALT level at 30 mg/kg, ip pretreated with high fat diet for 4 weeks followed by 8 hrs fasting after STZ administration and measured 4 weeks after compound treatment (reference value: 152.1 +/- 23.64 IU/L). Format: functional.
In experiment [2] the test system is Rattus norvegicus. As to the kind of experiment: Antidiabetic activity in high fat diet-STZ induced diabetic Wistar rat model assessed as mean area percentage of TNFalpha in kidney at 30 mg/kg, ip pretreated with high fat diet for 4 weeks followed by 8 hrs fasting after STZ administration and measured after 4 weeks of compound treatment by immunohistochemistry based microscopic analysis (reference value: 24 +/- 1.5 %). Format: functional.

In experiment [3] the test system is Rattus norvegicus. The experiment in a line: Antidiabetic activity in high fat diet-STZ induced diabetic Wistar rat model assessed as blood urea nitrogen level at 30 mg/kg, ip pretreated with high fat diet for 4 weeks followed by 8 hrs fasting after STZ administration and measured 4 weeks after compound treatment (reference value: 466.4 +/- 51.16 mg%). Format: functional.

The test system of experiment [4] is Rattus norvegicus. The experiment in a line: Antidiabetic activity in high fat diet-STZ induced diabetic Wistar rat model assessed as reduction in interstitial inflammatory cell infiltration in kidney at 10 mg/kg, ip pretreated with high fat diet for 4 weeks followed by 8 hrs fasting after STZ administration and measured 4 weeks after compound treatment by hematoxylin and eosin staining based microscopic analysis. Type of experiment: functional, organism-based.

Experiment [5] relates to Rattus norvegicus. The experiment in a line: Antidiabetic activity in high fat diet-STZ induced diabetic Wistar rat model assessed as protection against vacuolar changes throughout hepatic lobules at 10 mg/kg, ip pretreated with high fat diet for 4 weeks followed by 8 hrs fasting after STZ administration and measured 4 weeks after compound treatment by hematoxylin and eosin staining based microscopic analysis. Format: functional, organism-based.

Experiment [6] concerns Rattus norvegicus. As to the kind of experiment: Antidiabetic activity in high fat diet-STZ induced diabetic Wistar rat model assessed as reduction in inflammatory infiltrates in kidney at 20 mg/kg, ip pretreated with high fat diet for 4 weeks followed by 8 hrs fasting after STZ administration and measured 4 weeks after compound treatment by hematoxylin and eosin staining based microscopic analysis. Type of experiment: functional, organism-based.

The test system of experiment [7] is Rattus norvegicus. As to the kind of experiment: Antidiabetic activity in high fat diet-STZ induced diabetic Wistar rat model assessed as HDL-cholesterol level at 10 mg/kg, ip pretreated with high fat diet for 4 weeks followed by 8 hrs fasting after STZ administration and measured 4 weeks after compound treatment (reference value: 0.688 +/- 0.288 mmol/L). Type of experiment: functional.

The subject of experiment [8] is Rattus norvegicus. As to the kind of experiment: Antidiabetic activity in ip dosed high fat diet-STZ induced diabetic Wistar rat model assessed as reduction of ZBP1 mRNA expression in adipose tissue pretreated with high fat diet for 4 weeks followed by 8 hrs fasting after STZ administration and measured 4 weeks after compound treatment by RT-qPCR analysis. The note with it: dose 10-30 mg/kg. Format: functional, organism-based. A general note: Real-time PCR tracks product formation cycle by cycle.

In experiment [9] the test system is Rattus norvegicus. The experiment in a line: Antidiabetic activity in high fat diet-STZ induced diabetic Wistar rat model assessed as HDL-cholesterol level at 30 mg/kg, ip pretreated with high fat diet for 4 weeks followed by 8 hrs fasting after STZ administration and measured 4 weeks after compound treatment (reference value: 0.688 +/- 0.288 mmol/L). Format: functional.

Experiment [10] concerns Rattus norvegicus. As to the kind of experiment: Antidiabetic activity in high fat diet-STZ induced diabetic Wistar rat model assessed as increase in AC074117.2 lncRNA expression in adipose tissue at 10 to 30 mg/kg, ip pretreated with high fat diet for 4 weeks followed by 8 hrs fasting after STZ administration and measured 4 weeks after compound treatment by RT-qPCR analysis. Format: functional, organism-based. To be noted: dose 10-30 mg/kg.

The subject of experiment [11] is Rattus norvegicus. The experiment in a line: Antidiabetic activity in high fat diet-STZ induced diabetic Wistar rat model assessed as mean area percentage of TNF alpha in liver at 30 mg/kg, ip pretreated with high fat diet for 4 weeks followed by 8 hrs fasting after STZ administration and measured after 4 weeks of compound treatment by immunohistochemistry based microscopic analysis (reference value: 18.28 +/- 1.31 %). Type of experiment: functional.

The subject of experiment [12] is Rattus norvegicus. The experiment in a line: Antidiabetic activity in high fat diet-STZ induced diabetic Wistar rat model assessed as urine albumin to creatinine ratio at 30 mg/kg, ip pretreated with high fat diet for 4 weeks followed by 8 hrs fasting after STZ administration and measured 4 weeks after compound treatment (reference value: 87.13 +/- 9.75 mg/g). Format: functional.

The test system of experiment [13] is Rattus norvegicus. The experiment in a line: Antidiabetic activity in ip dosed high fat diet-STZ induced diabetic Wistar rat model assessed as reduction of miR-1976 expression in kidney pretreated with high fat diet for 4 weeks followed by 8 hrs fasting after STZ administration and measured 4 weeks after compound treatment by RT-qPCR analysis. To be noted: dose 10-30 mg/kg. Format: functional, organism-based.

Experiment [14] deals with Rattus norvegicus. As to the kind of experiment: Antidiabetic activity in high fat diet-STZ induced diabetic Wistar rat model assessed as mean area percentage of TNFalpha in kidney at 20 mg/kg, ip pretreated with high fat diet for 4 weeks followed by 8 hrs fasting after STZ administration and measured after 4 weeks of compound treatment by immunohistochemistry based microscopic analysis (reference value: 24 +/- 1.5 %). Type of experiment: functional.

In experiment [15] the test system is Rattus norvegicus. As to the kind of experiment: Antidiabetic activity in high fat diet-STZ induced diabetic Wistar rat model assessed as LDL-cholesterol level at 30 mg/kg, ip pretreated with high fat diet for 4 weeks followed by 8 hrs fasting after STZ administration and measured 4 weeks after compound treatment (reference value: 6.54 +/- 0.918 mmol/L). Format: functional.

For experiment [16], the system named is Rattus norvegicus. The experiment in a line: Antidiabetic activity in high fat diet-STZ induced diabetic Wistar rat model assessed as creatinine level at 30 mg/kg, ip pretreated with high fat diet for 4 weeks followed by 8 hrs fasting after STZ administration and measured 4 weeks after compound treatment (reference value: 3.88 +/- 0.502 mg%). Format: functional.

The test system of experiment [17] is Rattus norvegicus. As to the kind of experiment: Antidiabetic activity in high fat diet-STZ induced diabetic Wistar rat model assessed as creatinine level at 20 mg/kg, ip pretreated with high fat diet for 4 weeks followed by 8 hrs fasting after STZ administration and measured 4 weeks after compound treatment (reference value: 3.88 +/- 0.502 mg%). Format: functional.

Experiment [18] relates to Rattus norvegicus. As to the kind of experiment: Antidiabetic activity in high fat diet-STZ induced diabetic Wistar rat model assessed as triglyceride level at 20 mg/kg, ip pretreated with high fat diet for 4 weeks followed by 8 hrs fasting after STZ administration and measured 4 weeks after compound treatment (reference value: 17.05 +/- 0.803 mmol/L). Format: functional.

Experiment [19] has as its system Rattus norvegicus. The experiment in a line: Antidiabetic activity in high fat diet-STZ induced diabetic Wistar rat model assessed as AST level at 10 mg/kg, ip pretreated with high fat diet for 4 weeks followed by 8 hrs fasting after STZ administration and measured 4 weeks after compound treatment (reference value: 136.3 +/- 22.8 IU/L). Type of experiment: functional.

The test system of experiment [20] is Rattus norvegicus. As to the kind of experiment: Antidiabetic activity in high fat diet-STZ induced diabetic Wistar rat model assessed as binucleated cells in liver at 30 mg/kg, ip pretreated with high fat diet for 4 weeks followed by 8 hrs fasting after STZ administration and measured 4 weeks after compound treatment by hematoxylin and eosin staining based microscopic analysis. Type of experiment: functional, organism-based.

Experiment [21] deals with Rattus norvegicus. The experiment in a line: Antidiabetic activity in high fat diet-STZ induced diabetic Wistar rat model assessed as cholesterol level at 10 mg/kg, ip pretreated with high fat diet for 4 weeks followed by 8 hrs fasting after STZ administration and measured 4 weeks after compound treatment (reference value: 10.39 +/- 1.3 mmol/L). Format: functional.
For experiment [22], the system named is Rattus norvegicus. As to the kind of experiment: Antidiabetic activity in high fat diet-STZ induced diabetic Wistar rat model assessed as glucose level in serum at 30 mg/kg, ip pretreated with high fat diet for 4 weeks followed by 8 hrs fasting after STZ administration and measured 4 weeks after compound treatment (reference value: 527.7 +/- 49.1 mg%). Type of experiment: functional.

The subject of experiment [23] is Rattus norvegicus. As to the kind of experiment: Antidiabetic activity in high fat diet-STZ induced diabetic Wistar rat model assessed as reduction in degenerative changes in liver at 30 mg/kg, ip pretreated with high fat diet for 4 weeks followed by 8 hrs fasting after STZ administration and measured 4 weeks after compound treatment by hematoxylin and eosin staining based microscopic analysis. Format: functional, organism-based.

For the molecule `O[C@@H]1[C@@H](O)[C@H](OC/C=C/c2ccccc2)O[C@H](CO[C@@H]2OC[C@H](O)[C@H](O)[C@H]2O)[C@H]1O`, the Activity in experiment [1] was 18.13 IU/L; in experiment [2], 3.98%; in experiment [3], 172.3 mg%; in experiment [7] it was 0.916 mmol/L; in [8], “Dose-Dependent Effect”; in experiment [9], 1.39 mmol/L. Moreover, the Activity in experiment [11] was 3.52%; in [12], 20.88 mg/g; in experiment [13] it was “Dose-Dependent Effect”; in experiment [14], 13.17%; in [15], 1.3 mmol/L; in experiment [16], 0.769 mg%. In addition, the Activity in [17] was 1.51 mg%; in experiment [18], 6.46 mmol/L; in experiment [19], 83.63 IU/L; in [21], 6.09 mmol/L; in experiment [22] it was 123.9 mg%. The result in experiment [4], in [6], in [10], in [20] and in experiment [23] was Active. Besides, in experiment [5], the result was inactive.
